Data taken from patent US20260166017A1, “SARM1 INHIBITORS FOR USE IN THERAPY AND COSMETICS” (priority 2022, published 2026).
Entries after “also recorded” stand apart in the source; their conditions may differ.

Columns and labels:
HEK293 cells = assay: Intracellular NAD+ in HEK293 cells (NAD-glo assay); assay type: cell-based, Human; conditions: 100 μM vacor, 72 hours
Procedure: Schwann and HEK 293T cells were treated with 100 μM vacor, 250 μM 3AP, or vehicle controls, and collected in media at Oh and 72 h after treatment. Protein was extracted using Pierce™ IP Lysis Buffer supplemented with cOmplete™ Mini EDTA-free Protease Inhibitor Cocktail, and a BCA assay carried out to determine protein concentration. All samples were diluted to 0.5 μg/μL. The NAD-glo assay was performed according to manufacturer's instruction of the NAD^+/NADH-Glo™ assay by Promega (G9071). In short, 25 μL of sample were incubated with 12.5 μL 0.4M HCl at 60° C. for 15 min, before 12.5 μL 0.5M Tris base were added. 10 μL NAD^+ standards or sample were then mixed with 10 μL NAD-glo master mix (1 ml luciferin detection reagent, 5 μl reductase, 5 μl reductase substrate, 5 μl NAD^+ cycling enzyme, 25 μl NAD^+ cycling substrate) and incubated at RT for 40 min. Luminescence was read using a GloMax® Explorer microplate reader and NAD^+ concentrations determined relative to a NAD^+ standard curve.

Rat oligodendrocytes = assay: Cell death / SOX10 positive cell survival in cultured rat oligodendrocytes; assay type: cell-based; conditions: 100 μM vacor for 72 hours vs DMSO
Procedure: Sprague-Dawley neonatal (sp7) rat pups were decapitated following lethal overdose with pentobarbital. The brains were dissected and submerged into Hibernate-A low fluorescence media (Transnetyx Tissue, #HALF). The tissue was cut into 1-mm^3 pieces, washed in HBSS^−/− (Gibco, #11039047), then spun down at 100 g for 1 min at room temperature. To digest the tissue, the tissue was incubated in 34 U/mL papain (Worthington, #LS003127) and 40 μg/mL DNase I (Sigma, #D5025) in HALF, and incubated on an orbital shaker (55 rpm) for 40 min at 37° C. […] To collect the A2B5+ fraction, the MACS MS column (Miltenyi, #130-042-201) was removed from the magnetic stand (Miltenyi, #130-042-102) and cells were flushed from the column with 1 ml of prewarmed OPC medium (DMEM F/12 containing N-Acetyl cysteine (60 μg/ml, Sigma, #A9165), human recombinant insulin (10 ug/ml), sodium pyruvate (1 mM, Thermo Fisher, #11360-070), apo-transferrin (50 μg/ml, Sigma, #T2036), putrescine (16.1 μg/ml, Sigma, #P7505), sodium selenite (40 ng/ml, Sigma, #S5261), progesterone (60 ng/ml, Sigma, #P0130), bovine serum albumin (330 μg/ml, Sigma, #A4919). Cells were counted, then seeded at a density of 20,000 cells/cm^2 on poly-D-lysine (5 μg/ml PDL, Sigma #P6407) coated plates. […]

[1] = tested on: expanded mouse Schwann cells; assay: Cell death in expanded mouse Schwann cells passaged three times (phase contrast, propidium iodide); assay type: cell-based; conditions: 100 μM vacor for 72 hours vs DMSO; Schwann cells passaged three times in proliferative medium
Procedure: Mouse SCs were passaged on PLL/laminin coated dishes in the presence of low serum (0.5% horse serum), 10 ng/ml Bneuregulin1 (BNRG1), and a low concentration cyclic adenosine monophosphate (CAMP) elevating signal, such as 2 μM forskolin or 100 μM dibutryl cAMP (Arthur-Farraj et al., 2011). Full protocol is described in (Mutschler et al., 2023).

Human foetal DRG axons = assay: Axon degeneration and regeneration assay in human foetal DRGs in microfluidic chambers; assay type: cell-based; conditions: 24 h after addition of 25 μM Vacor in the axonal compartment
Procedure: Human foetal DRG ganglia were dissected, dissociated and plated in microfluidic chambers (150 μm barrier, XONA Microfluidics) in 35 mm tissue culture dishes pre-coated with poly-L-lysine (100 μg/ml for 1 hr; Merck) and laminin (20 μg/ml for 1 hr; Merck) in Dulbecco's Modified Eagle's Medium (DMEM, Gibco) with 1% penicillin/streptomycin, 33 ng/ml 2.5 S NGF (all Invitrogen) and 2% B27 (Gibco). 4 μM aphidicolin (Merck) was used to reduce proliferation and viability of small numbers of non-neuronal cells. On DIV7, a difference of 100 μl of media between chambers was introduced and drugs were added to the compartment with the lower hydrostatic pressure. Phase contrast microscopy images were acquired on a DMi8 upright fluorescence microscope (Leica microsystems) coupled to a monochrome digital camera (Hamamatsu C4742-95). The objective used was HCXPL 20 X/0.40 CORR.

[2] = tested on: human dermal skin fibroblasts; assay: Cell death assay in human dermal skin fibroblasts (propidium iodide); assay type: cell-based; conditions: high dose vacor (100 μM), 72 h vs DMSO
Procedure: Human primary myoblasts and human dermal skin fibroblasts were cultured following previously described protocols (Kisiel and Klar 2019; Rozwadowska et al. 2022). Drug treatment was started when cells reached the desired confluency. To visualise cell death, 1 μg/ml propidium iodide (PI) (Thermo Fisher Scientific) was added to the media at the same time of drug addition (Loreto et al. 2021). Phase contrast and fluorescence microscopy images were acquired on a DMi8 upright fluorescence microscope (Leica microsystems) coupled to a monochrome digital camera (Hamamatsu C4742-95). The objective used was HCXPL 20 X/0.40 CORR.

O=C(NCc1cccnc1)Nc1ccc([N+](=O)[O-])cc1 [vacor, Vacor]
Intracellular NAD+ levels (HEK293 cells): decrease
cell death judged by DAPI nuclear staining and SOX10 immunocytochemistry (Rat oligodendrocytes): died within hours; also recorded: substantial cell death
cell death by propidium iodide (P.I.) staining and phase contrast [1]: susceptible to cellular dysfunction and death; also recorded: substantial increase in P.I. staining
DRG axon degeneration (Human foetal DRG axons): degenerate
cell death by propidium iodide (P.I.) staining [2]: completely insensitive; also recorded: no cell death occurs
